Each block holds one compound with its values, some of them ahead of it.
Columns and labels:
[1] = BPH Preclinical Study 4: tissue pharmacokinetics of paclitaxel; type: in vivo, dog
From the text: (§1) This study was completed on mongrel canines.

[2] = BPH Preclinical Study 4: plasma paclitaxel concentration; type: in vivo, dog
From the text: as §1

[3] = system: prostate; assay: BPH Preclinical Study 4: histology, clinical observation, urethra lumen diameter; type: in vivo, dog
From the text: as §1

[4] = Human clinical study, urethral strictures: paclitaxel in blood, urine, semen; type: in vivo
Description: Clinical subjects were evaluated at 14, 30, 90, 180, 365 days, and 2 years after the index procedure. Evaluations included analysis of stricture free rate, uroflowmetry including Qmax, and PVR.

[5] = Human clinical study, BPH: paclitaxel in blood, urine, semen; type: in vivo
[6] = with the addition of BSA; cited from earlier work
[7] = system: albumin; conditions: cited from earlier work
[8] = stability of additives with paclitaxel under ethylene oxide sterilization, heating and aging; conditions: additive with paclitaxel; reacted with paclitaxel

prostate drug concentration, maximum dose arm versus standard dose ([1]; 28 days): 4.5 times
prostatic urethra drug concentration, maximum dose arm versus standard dose ([1]; 28 days): 11 times
prostate drug concentration, maximum dose arm versus standard dose ([1]; 70 days): 23 times
prostatic urethra drug concentration, maximum dose arm versus standard dose ([1]; 70 days): 23 times
average drug concentration, epididymis ([1]; lowest, immediately after treatment): 0.0017 µg/g
concentration at 28 days ([1]; male, mongrel, dog, prostate, other: transurethral drug-coated balloon catheter, 6.8 mg, standard dose arm, 28 days): 20 ng/g
concentration at 1 h ([1]; male, mongrel, dog, prostatic urethra, other: transurethral drug-coated balloon catheter, 6.8 mg): 28000 ng/g
concentration at 70 days ([1]; male, mongrel, dog, prostatic urethra, other: transurethral drug-coated balloon catheter, 6.8 mg, standard dose arm, 70 days): 4 ng/g
nonurethral close proximity tissue sample concentrations ([1]; most samples, 28 days and beyond): at or below the limit of quantification
plasma paclitaxel concentration ([2]; maximum dose, 12 hour and later): BLOQ
plasma paclitaxel concentration ([2]; standard dose, all time-points (1, 3, 7, 12 hours, 1, 3, 7, 14, and 28 days)): BLOQ
clinical abnormalities ([3]; any animals, duration of the study): No significant clinical abnormalities
prostate histology ([3]; maximum dose animals, slower healing relative to standard dose and control): ongoing healing at 28 days
abnormalities or complications ([3]; maximum dose treatment arm using 19.6 mg of paclitaxel): no abnormalities or complications
Human plasma paclitaxel concentration ([4]; 1 hour, 3 hours, 5 hours, 10 hours, 24 hours, and 5 days): below the level of quantification
concentration at 14 days ([4]; human, semen): 2.5 ng/mL
concentration at 30 days ([4]; human, semen): 1 ng/mL
concentration at 5 days ([4]; human, urine, 5 days): 2.6 ng/mL
concentration at 14 days ([4]; human, urine): 0.3 ng/mL
concentration at 30 days ([4]; human, urine): 0.1 ng/mL
Human urine paclitaxel concentration, average ([4]; immediately post procedure): 184 ng/mL
Human plasma paclitaxel concentration, average ([4]; immediately post treatment): 0.1 ng/mL
Human urine paclitaxel concentration, average ([5]; immediately post procedure): 598 ng/mL
Human plasma paclitaxel concentration, average ([5]; immediately post treatment): 0.2 ng/mL
concentration at 1 h ([5]; male, human, plasma, 2.4 μg of paclitaxel per millimeter squared, 1 hour): 0.2 ng/mL
concentration at 3 h ([5]; male, human, plasma, 2.4 μg of paclitaxel per millimeter squared, 3 hours): 0.1 ng/mL
concentration at 5 h ([5]; male, human, plasma, 2.4 μg of paclitaxel per millimeter squared, 5 hours): 0.1 ng/mL
concentration at 10 h ([5]; male, human, plasma, 2.4 μg of paclitaxel per millimeter squared, 10 hours): 0.07 ng/mL
concentration at 24 h ([5]; male, human, plasma, 2.4 μg of paclitaxel per millimeter squared, 24 hours): 0.03 ng/mL
concentration at 14 days ([5]; male, human, semen, 2.4 μg of paclitaxel per millimeter squared, 14 days): 5.3 ng/mL
concentration at 4 days ([5]; male, human, urine, 2.4 μg of paclitaxel per millimeter squared, 4 days): 202 ng/mL
concentration at 30 days ([5]; male, human, urine, 2.4 μg of paclitaxel per millimeter squared, 30 days): 5.1 ng/mL
Compound: CC(=O)O[C@H]1C(=O)[C@@]2(C)[C@H]([C@H](OC(=O)c3ccccc3)[C@]3(O)C[C@H](OC(=O)[C@H](O)[C@@H](NC(=O)c4ccccc4)c4ccccc4)C(C)=C1C3(C)C)[C@]1(OC(C)=O)CO[C@@H]1C[C@@H]2O [paclitaxel]
increase of solubility in PBS [6]: over 20 fold

Compound: CO[C@H]1C[C@@H]2CC[C@@H](C)[C@@](O)(O2)C(=O)C(=O)N2CCCC[C@H]2C(=O)O[C@H]([C@H](C)C[C@@H]2CC[C@@H](O)[C@H](OC)C2)CC(=O)[C@H](C)/C=C(\C)[C@@H](O)[C@@H](OC)C(=O)[C@H](C)C[C@H](C)/C=C/C=C/C=C/1C [rapamycin]
protein bound [7]: 92%
share of protein binding that is to albumin ([7]; primarily to albumin): 97%

Compound: O=C(O)c1ccccc1 [benzoic acid]
stability under ethylene oxide sterilization, heating, and aging process [8]: not stable

— US12280179B2 (Urotronic, Inc., priority 2012, dated 2025)
